# What was measured:
# [1] = biological target: Protein arginine N-methyltransferase 1 (Homo sapiens, UniProt Q99873); assay: Inhibition of PRMT1 (unknown origin) by AlphaLISA assay
# [2] = biological target: T1, Histone-arginine methyltransferase CARM1 (Homo sapiens, UniProt Q86X55); assay: Inhibition of CARM1 (unknown origin) using histone H3 (21 to 44 residues) and SAM as substrates by AlphaLISA assay
# T1 sequence (Q86X55 whole entry): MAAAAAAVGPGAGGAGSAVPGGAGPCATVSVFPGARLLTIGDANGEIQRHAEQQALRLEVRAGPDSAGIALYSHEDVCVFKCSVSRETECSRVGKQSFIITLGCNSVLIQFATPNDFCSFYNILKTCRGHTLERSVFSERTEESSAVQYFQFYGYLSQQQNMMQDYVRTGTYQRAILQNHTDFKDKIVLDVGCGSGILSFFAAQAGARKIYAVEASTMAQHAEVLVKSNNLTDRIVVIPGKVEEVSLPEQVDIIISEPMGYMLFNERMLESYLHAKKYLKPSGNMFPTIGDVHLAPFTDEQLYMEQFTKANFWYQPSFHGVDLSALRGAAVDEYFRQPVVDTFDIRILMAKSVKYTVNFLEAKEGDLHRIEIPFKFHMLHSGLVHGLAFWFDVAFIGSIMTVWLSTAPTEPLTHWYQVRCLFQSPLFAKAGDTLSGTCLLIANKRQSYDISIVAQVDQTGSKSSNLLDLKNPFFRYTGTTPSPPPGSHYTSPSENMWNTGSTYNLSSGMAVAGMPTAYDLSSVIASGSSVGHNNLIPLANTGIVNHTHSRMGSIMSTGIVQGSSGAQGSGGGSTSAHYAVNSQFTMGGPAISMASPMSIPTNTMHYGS
# HCT-116 [3] = assay: Antiproliferative activity against human HCT-116 cells assessed as inhibition of cell growth by CCK-8 assay; format: functional, cell-based
# HCT-116 [4] = assay: Potency index, ratio of GSK3368715 IC50 to test compound IC50 for antiproliferative activity against human HCT-116 cells assessed as inhibition of cell growth by CCK-8 assay; format: functional
# [5] = biological target: T2, Protein arginine N-methyltransferase 6 (Homo sapiens, UniProt Q96LA8); assay: Inhibition of PRMT6 (unknown origin) by AlphaLISA assay
# [6] = biological target: T3, Protein arginine N-methyltransferase 8 (Homo sapiens, UniProt Q9NR22); assay: Inhibition of PRMT8 (unknown origin) by AlphaLISA assay
# [7] = biological target: Protein arginine N-methyltransferase 3 (Homo sapiens, UniProt O60678); assay: Inhibition of PRMT3 (unknown origin) by AlphaLISA assay
# [8] = biological target: Protein arginine N-methyltransferase 5 (Homo sapiens, UniProt O14744); assay: Inhibition of PRMT5 (unknown origin) by AlphaLISA assay
# in vitro [9] = details: mouse, liver microsomes
# Description: Metabolic stability in mouse liver microsomes assessed as half life by LC-MS/MS analysis
# in vitro [10] = details: mouse, liver microsomes; remark: listed apart in the source
# Description: Metabolic stability in mouse liver microsomes assessed as microsomal intrinsic clearance by LC-MS/MS analysis
# in vitro [11] = details: mouse, liver microsomes; remark: listed apart in the source
# Description: Metabolic stability in mouse liver microsomes assessed as intrinsic clearance by LC-MS/MS analysis
# HCT-116 [12] = assay: Induction of apoptosis in human HCT-116 cells assessed as late apoptotic cells at 0.63 uM measured after 72 hrs by Annexin V-FITC/PI staining based flow cytometry analysis (reference value: 1.53%); format: functional
# HCT-116 [13] = assay: Induction of apoptosis in human HCT-116 cells assessed as dead cells at 0.63 uM measured after 72 hrs by Annexin V-FITC/PI staining based flow cytometry analysis (reference value: 1.07%); format: functional
# HCT-116 [14] = assay: Induction of apoptosis in human HCT-116 cells assessed as late apoptotic cells at 1.25 uM measured after 72 hrs by Annexin V-FITC/PI staining based flow cytometry analysis (reference value: 1.53%); format: functional
# HCT-116 [15] = assay: Induction of apoptosis in human HCT-116 cells assessed as dead cells at 1.25 uM measured after 72 hrs by Annexin V-FITC/PI staining based flow cytometry analysis (reference value: 1.07%); format: functional
# HCT-116 [16] = assay: Induction of apoptosis in human HCT-116 cells assessed as late apoptotic cells at 2.5 uM measured after 72 hrs by Annexin V-FITC/PI staining based flow cytometry analysis (reference value: 1.53%); format: functional
# HCT-116 [17] = assay: Induction of apoptosis in human HCT-116 cells assessed as dead cells at 2.5 uM measured after 72 hrs by Annexin V-FITC/PI staining based flow cytometry analysis (reference value: 1.07%); format: functional
# HCT-116 [18] = assay: Induction of apoptosis in human HCT-116 cells assessed as late apoptotic cells at 5 uM measured after 72 hrs by Annexin V-FITC/PI staining based flow cytometry analysis (reference value: 1.53%); format: functional
# HCT-116 [19] = assay: Induction of apoptosis in human HCT-116 cells assessed as dead cells at 5 uM measured after 72 hrs by Annexin V-FITC/PI staining based flow cytometry analysis (reference value: 1.07%); format: functional
# [20] = biological target: T1, Histone-arginine methyltransferase CARM1; assay: Inhibition of N-terminal FLAG tagged human PRMT4 (2 to end residues) expressed in FreeStyle 293-F cells using SAM and rHistone H3.1 as substrate preincubated for 60 mins followed by substrate addition and measured after 40 mins by Topcount reader based analysis
# [21] = biological target: T2, Protein arginine N-methyltransferase 6; assay: Inhibition of N-terminal His tagged human recombinant PRMT6 (2 to 375 residues) expressed in Escherichia coli using SAM and Histone (1 to 21 residues) as substrate preincubated for 60 mins followed by substrate addition and measured after 40 mins by Topcount reader based analysis
# [22] = biological target: T3, Protein arginine N-methyltransferase 8; assay: Inhibition of PRMT8 (unknown origin) using SAM and Histone (1 to 21 residues) as substrate preincubated for 60 mins followed by substrate addition and measured after 40 mins by Topcount reader based analysis
# [23] = biological target: T1, Histone-arginine methyltransferase CARM1; assay: Inhibition of CARM1 (unknown origin)
# T2 sequence (Q96LA8 whole entry): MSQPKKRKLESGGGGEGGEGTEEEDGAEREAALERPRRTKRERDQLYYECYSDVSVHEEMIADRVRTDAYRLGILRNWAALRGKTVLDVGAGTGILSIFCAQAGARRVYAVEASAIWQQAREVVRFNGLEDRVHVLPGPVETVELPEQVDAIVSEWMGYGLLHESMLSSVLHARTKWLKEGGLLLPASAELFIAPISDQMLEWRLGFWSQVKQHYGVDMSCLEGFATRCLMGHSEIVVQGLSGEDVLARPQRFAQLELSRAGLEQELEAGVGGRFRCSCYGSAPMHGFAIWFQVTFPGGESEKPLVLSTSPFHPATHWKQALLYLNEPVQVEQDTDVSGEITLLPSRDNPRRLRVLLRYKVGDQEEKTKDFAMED
# Chain of Protein arginine N-methyltransferase 1 (Q99873 whole entry, the tested form may be a part): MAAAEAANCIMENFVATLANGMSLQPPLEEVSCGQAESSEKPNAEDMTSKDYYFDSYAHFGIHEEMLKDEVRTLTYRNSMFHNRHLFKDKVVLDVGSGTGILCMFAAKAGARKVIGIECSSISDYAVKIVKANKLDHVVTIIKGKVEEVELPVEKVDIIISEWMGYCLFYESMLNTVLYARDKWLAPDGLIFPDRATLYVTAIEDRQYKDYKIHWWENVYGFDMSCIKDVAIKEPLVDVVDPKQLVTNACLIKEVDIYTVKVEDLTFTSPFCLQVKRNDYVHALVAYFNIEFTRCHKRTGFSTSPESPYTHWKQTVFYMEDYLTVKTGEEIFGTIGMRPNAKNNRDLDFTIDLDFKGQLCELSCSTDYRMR
# T3 sequence (Q9NR22 whole entry): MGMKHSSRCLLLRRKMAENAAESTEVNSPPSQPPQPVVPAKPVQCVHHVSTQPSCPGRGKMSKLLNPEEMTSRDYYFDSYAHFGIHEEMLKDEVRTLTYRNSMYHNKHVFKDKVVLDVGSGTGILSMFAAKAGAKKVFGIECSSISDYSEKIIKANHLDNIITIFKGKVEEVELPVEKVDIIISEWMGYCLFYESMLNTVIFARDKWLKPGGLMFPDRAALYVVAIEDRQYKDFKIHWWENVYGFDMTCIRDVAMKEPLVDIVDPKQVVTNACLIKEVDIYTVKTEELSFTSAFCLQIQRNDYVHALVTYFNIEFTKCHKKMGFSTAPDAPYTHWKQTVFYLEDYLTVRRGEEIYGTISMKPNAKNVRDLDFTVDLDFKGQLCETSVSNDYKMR
# Chain of Protein arginine N-methyltransferase 3 (O60678 whole entry): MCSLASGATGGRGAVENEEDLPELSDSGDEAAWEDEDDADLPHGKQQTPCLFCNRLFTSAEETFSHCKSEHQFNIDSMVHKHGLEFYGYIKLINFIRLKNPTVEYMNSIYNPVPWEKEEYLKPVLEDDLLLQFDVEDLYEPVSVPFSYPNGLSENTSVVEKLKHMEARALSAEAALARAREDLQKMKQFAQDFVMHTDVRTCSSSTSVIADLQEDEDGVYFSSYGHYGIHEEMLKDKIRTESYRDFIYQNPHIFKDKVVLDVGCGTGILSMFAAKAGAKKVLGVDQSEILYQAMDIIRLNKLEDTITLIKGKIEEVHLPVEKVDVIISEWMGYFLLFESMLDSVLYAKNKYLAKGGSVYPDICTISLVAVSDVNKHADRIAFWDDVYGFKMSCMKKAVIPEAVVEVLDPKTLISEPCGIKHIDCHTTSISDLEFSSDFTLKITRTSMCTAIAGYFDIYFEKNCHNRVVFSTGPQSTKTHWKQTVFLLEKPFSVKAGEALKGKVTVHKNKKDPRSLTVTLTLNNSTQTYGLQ
# Chain of Protein arginine N-methyltransferase 5 (O14744 whole entry): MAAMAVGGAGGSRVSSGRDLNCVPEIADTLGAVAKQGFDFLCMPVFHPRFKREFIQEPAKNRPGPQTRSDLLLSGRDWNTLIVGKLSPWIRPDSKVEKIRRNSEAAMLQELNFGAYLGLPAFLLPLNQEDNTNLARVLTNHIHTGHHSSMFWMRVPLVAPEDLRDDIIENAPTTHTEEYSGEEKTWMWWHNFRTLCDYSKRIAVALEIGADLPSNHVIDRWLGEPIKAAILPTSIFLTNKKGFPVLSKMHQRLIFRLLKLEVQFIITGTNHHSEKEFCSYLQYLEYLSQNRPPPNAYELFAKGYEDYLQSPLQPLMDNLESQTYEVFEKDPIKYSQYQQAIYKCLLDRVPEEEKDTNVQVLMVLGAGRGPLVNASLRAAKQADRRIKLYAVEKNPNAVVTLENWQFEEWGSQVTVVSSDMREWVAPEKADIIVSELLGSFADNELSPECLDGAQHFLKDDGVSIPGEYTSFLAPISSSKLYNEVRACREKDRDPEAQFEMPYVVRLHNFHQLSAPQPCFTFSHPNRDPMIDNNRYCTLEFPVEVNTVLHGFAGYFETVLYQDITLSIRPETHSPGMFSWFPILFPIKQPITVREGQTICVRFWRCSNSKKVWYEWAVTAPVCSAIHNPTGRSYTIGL
Structure (SMILES),IC50 [1] [nM],IC50 [2] [nM],IC50 (HCT-116 [3]) [nM],Ratio IC50 (HCT-116 [4]),IC50 [5] [nM],IC50 [6] [nM],IC50 [7] [nM],IC50 [8] [nM],half-life (in vitro [9]) [h],microsomal CLint (in vitro [10]) [µL/min/mg],CLint scaled (in vitro [11]) [mL/min/kg],also measured
CNCCN(C)Cc1ccccc1OC1CCC(COC)(COC)CC1.Cl.Cl,56,7,2960,>10,12,24,493,> 100000,0.76,30.4,120,
CCOCC1(COCC)CCC(Oc2ccccc2CN(C)C[C@@H](O)CNC)CC1,56,9,3130,>10,10,31,2640,> 100000,3.62,6.4,25.3,Activity (HCT-116 [12]): 0.87%; Activity (HCT-116 [13]): 1.32%; Activity (HCT-116 [14]): 1.09%; Activity (HCT-116 [15]): 1.83%; Activity (HCT-116 [16]): 2.13%; Activity (HCT-116 [17]): 1.52%; Activity (HCT-116 [18]): 1.3%; Activity (HCT-116 [19]): 2.14%
CCOCC1(COCC)CCC(c2n[nH]cc2CN(C)CCNC)CC1,,12,38200,,,,,,,,,IC50 [20]: 1.7 nM; IC50 [21]: 1.7 nM; IC50 [22]: 1.7 nM
CCOCC1(COCC)CCC(Oc2ccccc2CN(C)C[C@H](O)CNC)CC1,281,37,,,,,,,,,,
CNCCN1CCC(c2ccc3c(F)c(-c4ccccc4OC)[nH]c3c2)CC1,,,,,,,,,,,,IC50 [23]: 30 nM
